According to US20100210562A1, “USE OF IL-1 RECEPTOR PEPTIDE, ALONE OR IN COMBINATION WITH D-ALA-GLN-OCTADECYL ESTER, AS A THERAPEUTIC AGENT” (priority 2007, published 2010):
Where no end group is shown, it is not given here.

Experiments:
HCMV strain AD169 = test: HCMV plaque formation assay in MRC-5 cells; conditions: for inhibition of HCMV plaque formation as compared to the virus control experiment: 10 micrograms per ml, 7-10 days
[1] = system: hepatitis B virus (HBV) ayw strain; test: HBV experimental assay system, secreted HBV DNA by TaqMan PCR in HepG2-2.2.15; type: cell-based; conditions: 10 micrograms per ml; 6 days; HBV DNA in supernatant
[2] = system: Th1/Th2 cytokine production (IL-2, IL-4, IL-5, IFN-γ, TNF-α) in murine spleen cells; test: Th1/Th2 cytokine profiling assay in ovalbumin-restimulated spleen cells; type: cell-based, Balb/c mice; conditions: 10 micrograms per ml; ovalbumin restimulation; 72 hours
Excerpt: The Balb/c mice (originated in 1923, it is a popular strain and is used in many different research disciplines. Also classified as an inbred from the production of 20 or more successive brother-sister matings, the Balb/c mouse is albino and small in size) were immunized on Days 1, 15, and 29 with Ovalbumin (Ovalbumin is the main protein found in egg white, commonly used to stimulate an immunological reaction in test animals) in PBS (5 micrograms/injection). On day 50, spleens of the mice were harvested (3 weeks after last boost with Ovalbumin). Cells were cultured (2×10^5/well in triplicate) and incubated with culture medium or test peptides—10 micrograms per ml—for 30 min. Thereafter, additional Ovalbumin was added to the cells at 10 micrograms/ml for in vitro restimulation of the cells. 72 hours later, cell supernatants were harvested and assayed using the Becton Dickinson Mouse Th1/Th2 Cytokine CBA Kit.

[3] = system: Primary Human endothelial cells (HUVEC); test: Endothelial cell migration assay; type: cell-based; conditions: 10 micrograms per ml; 22 hours
Experimental: Thereafter, designated concentration of testing peptides—10 micrograms per ml—was added in duplicate wells.

HUVEC = test: Endothelial tube formation assay; type: cell-based, human; conditions: 10 micrograms per ml; 20 hours; average tubule length
Excerpt: Positive control was vehicle only. […] Raw data were expressed as average tubule lenghs in pixels±standard deviation.

HIV-1IIIB = conditions: positive controls; MTS readout

Compound	antiviral activity of positive control compound (HCMV) (HCMV strain AD169; positive control)	inhibition of HBV replication as compared to the virus control infection [1] [%]	change of the production of IL-2 in murine spleen cells [2]	change of the production of IL-4 in murine spleen cells [2]	decrease of the production of IFN-γ in murine spleen cells [2]	decrease of the production of IL-5 in murine spleen cells [2]	decrease of the production of TNF-a in murine spleen cells [2] [%]	increase of the migration of endothelial cells [3] [%]	inhibition of the tube formation of human endothelial cells (HUVEC) [%]	inhibition of HCMV plaque formation as compared to the virus control experiment (HCMV strain AD169)	antiviral activity of positive control compounds (HIV-1) (HIV-1IIIB)	inhibition of the migration of human endothelial cells [3] [%]
Nc1nc(O)c2ncn(COC(CO)CO)c2n1 [Ganciclovir, reference compound]	expected levels of antiviral activity	–	–	–	–	–	–	–	–	–	–	–
D-Ala-Gln-octadecyl ester [Peptide 2]	–	66.0	did not significantly change	did not significantly change	98.1%	74.2%	71.3	2	10	2.9%	–	–
CC(C)(C)NC(=O)[C@@H]1CN(Cc2cccnc2)CCN1C[C@@H](O)C[C@@H](Cc1ccccc1)C(=O)N[C@H]1c2ccccc2C[C@H]1O [indinavir]	–	–	–	–	–	–	–	–	–	–	expected levels of antiviral activity	–
Lys-Ile-Cys-Ile-Arg-Ile-Gln-Ile-Ser-OH (KICIRIQIS-OH) [Peptide 1]	–	41.0	did not significantly change	did not significantly change	did not significantly change	did not significantly change	97	–	12	did not inhibit	–	32
Cc1cn([C@H]2C[C@H](N=[N+]=[N-])[C@@H](CO)O2)c(=O)[nH]c1=O [AZT]	–	–	–	–	–	–	–	–	–	–	expected levels of antiviral activity	–
